Results taken from ChEMBL document CHEMBL5625254, “Design, synthesis and evaluation of ursodeoxycholic acid-cinnamic acid hybrids as potential anti-inflammatory agents by inhibiting Akt/NF-κB and MAPK signaling pathways” (Eur J Med Chem, 2023).
Calls of active or inactive are those of the source. No cut-off for these calls is given here.

Legend:
RAW264.7 [1] = assay: Cytotoxicity against mouse RAW264.7 cells assessed as cell viability at 20 uM incubated for 24 hrs by CCK8 assay; format: toxicity, cell-based; conditions: raw264.7, 24 h
RAW264.7 [2] = assay: Anti-inflammatory activity in mouse RAW264.7 cells assessed as inhibition of LPS-induced NO production at 10 uM incubated for 24 hrs relative to control; format: functional
RAW264.7 [3] = assay: Anti-inflammatory activity in mouse RAW264.7 cells assessed as inhibition of LPS-induced NO production incubated for 24 hrs; format: functional, cell-based; conditions: for IC50: RAW264.7, 24 h; for inhibition: dose 1.25-20 µM
RAW264.7 [4] = assay: Anti-inflammatory activity in mouse RAW264.7 cells assessed as decrease in LPS-induced TNF-alpha level incubated for 24 hrs by ELISA; format: functional, cell-based; conditions: dose 5-20 µM
RAW264.7 [5] = assay: Anti-inflammatory activity in mouse RAW264.7 cells assessed as decrease in LPS-induced IL-1beta level incubated for 24 hrs by ELISA; format: functional, cell-based; conditions: dose 5-20 µM
RAW264.7 [6] = assay: Anti-inflammatory activity in mouse RAW264.7 cells assessed as decrease in LPS-induced IL-6 level incubated for 24 hrs by ELISA; format: functional, cell-based; conditions: dose 5-20 µM
RAW264.7 [7] = assay: Anti-inflammatory activity in mouse RAW264.7 cells assessed as decrease in LPS-induced PGE2 level incubated for 24 hrs by ELISA; format: functional, cell-based; conditions: dose 5-20 µM
RAW264.7 [8] = assay: Anti-inflammatory activity in mouse RAW264.7 cells assessed as decrease in LPS-induced IL-1beta mRNA level incubated for 24 hrs by RT-PCR analysis; format: functional, cell-based; conditions: dose 5-20 µM
RAW264.7 [9] = assay: Anti-inflammatory activity in mouse RAW264.7 cells assessed as decrease in LPS-induced IL-6 mRNA level incubated for 24 hrs by RT-PCR analysis; format: functional, cell-based; conditions: dose 5-20 µM
RAW264.7 [10] = assay: Anti-inflammatory activity in mouse RAW264.7 cells assessed as decrease in LPS-induced COX-2 mRNA level incubated for 24 hrs by RT-PCR analysis; format: functional, cell-based; conditions: dose 5-20 µM
RAW264.7 [11] = assay: Anti-inflammatory activity in mouse RAW264.7 cells assessed as decrease in LPS-induced iNOS level at 5 to 20 uM incubated for 24 hrs by Western blot analysis; format: functional, cell-based; conditions: dose 5-20 µM
RAW264.7 [12] = assay: Anti-inflammatory activity in mouse RAW264.7 cells assessed as decrease in LPS-induced COX-2 level at 5 to 20 uM incubated for 24 hrs by Western blot analysis; format: functional, cell-based; conditions: dose 5-20 µM
RAW264.7 [13] = assay: Anti-inflammatory activity in LPS-stimulated mouse RAW264.7 cells assessed as increase in I-kappa-B-alpha level at 5 to 20 uM preincubated for 24 hrs followed by LPS treatment for 30 mins by Western blot analysis; format: functional, cell-based; conditions: dose 5-20 µM, time 24.5 hrs
RAW264.7 [14] = assay: Effect on total p65 level in cytoplasm of LPS-stimulated mouse RAW264.7 cells at 5 to 20 uM preincubated for 24 hrs followed by LPS treatment for 30 mins by Western blot analysis; format: functional, cell-based; conditions: dose 5-20 µM, time 24.5 hrs
RAW264.7 [15] = assay: Anti-inflammatory activity in LPS-stimulated mouse RAW264.7 cells assessed as decrease in p65 level in nucleus at 5 to 20 uM preincubated for 24 hrs followed by LPS treatment for 30 mins by Western blot analysis; format: functional, cell-based; conditions: dose 5-20 µM, time 24.5 hrs
RAW264.7 [16] = assay: Anti-inflammatory activity in mouse RAW264.7 cells assessed as decrease in LPS-induced Akt phosphorylation at 5 to 20 uM preincubated for 24 hrs followed by LPS treatment for 30 mins by Western blot analysis; format: functional, cell-based; conditions: dose 5-20 µM, time 24.5 hrs
RAW264.7 [17] = assay: Anti-inflammatory activity in mouse RAW264.7 cells assessed as decrease in LPS-induced ERK phosphorylation at 5 to 20 uM incubated for 24 hrs by Western blot analysis; format: functional, cell-based; conditions: dose 5-20 µM
RAW264.7 [18] = assay: Anti-inflammatory activity in mouse RAW264.7 cells assessed as decrease in LPS-induced p38 phosphorylation at 5 to 20 uM incubated for 24 hrs by Western blot analysis; format: functional, cell-based; conditions: dose 5-20 µM
RAW264.7 [19] = assay: Anti-inflammatory activity in mouse RAW264.7 cells assessed as decrease in LPS-induced JNK phosphorylation at 5 to 20 uM incubated for 24 hrs by Western blot analysis; format: functional, cell-based; conditions: dose 5-20 µM
Mus musculus [20] = assay: Anti-inflammatory activity in endotoxemia ICR mouse model assessed as decrease in LPS-induced serum IL-6 level at 10 to 20 mg/kg, IG for 7 days consecutively followed by LPS treatment measured after 24 hrs by ELISA; format: functional, organism-based; conditions: dose 10-20 mg/kg, time 8.0 day
Mus musculus [21] = assay: Anti-inflammatory activity in endotoxemia ICR mouse model assessed as decrease in LPS-induced serum IL-1beta level at 10 to 20 mg/kg, IG for 7 days consecutively followed by LPS treatment measured after 24 hrs by ELISA; format: functional, organism-based; conditions: dose 10-20 mg/kg, time 8.0 day
Mus musculus [22] = assay: Anti-inflammatory activity in endotoxemia ICR mouse model assessed as decrease in LPS-induced serum TNF-alpha level at 10 to 20 mg/kg, IG for 7 days consecutively followed by LPS treatment measured after 24 hrs by ELISA; format: functional, organism-based; conditions: dose 10-20 mg/kg, time 8.0 day

IC50 (RAW264.7 [3]) [µM] | SMILES | Activity (RAW264.7 [1]) | inhibition at 10 µM (RAW264.7 [2]) [%] | inhibition (RAW264.7 [3]) | further results
7.7 | Cc1ccc(/C=C/C(=O)N2CCN(C(=O)CC[C@@H](C)[C@H]3CC[C@H]4[C@@H]5[C@@H](O)C[C@@H]6C[C@H](O)CC[C@]6(C)[C@H]5CC[C@]34C)CC2)cc1 | Non-Toxic | > 50 | Dose-Dependent Effect | Activity (RAW264.7 [4]): Dose-Dependent Effect; Activity (RAW264.7 [5]): Dose-Dependent Effect; Activity (RAW264.7 [6]): Dose-Dependent Effect; Activity (RAW264.7 [7]): Dose-Dependent Effect; Activity (RAW264.7 [8]): Dose-Dependent Effect; Activity (RAW264.7 [9]): Dose-Dependent Effect; Activity (RAW264.7 [10]): Dose-Dependent Effect; Activity (RAW264.7 [11]): Active; Activity (RAW264.7 [12]): Active; Activity (RAW264.7 [13]): Active; Activity (RAW264.7 [14]): inactive; Activity (RAW264.7 [15]): Active; Activity (RAW264.7 [16]): Active; Activity (RAW264.7 [17]): Active; Activity (RAW264.7 [18]): Active; Activity (RAW264.7 [19]): Active; Activity (Mus musculus [20]): Active; Activity (Mus musculus [21]): Active; Activity (Mus musculus [22]): Active
9.5 | C[C@H](CCC(=O)N1CCN(C(=O)/C=C/c2ccccc2)CC1)[C@H]1CC[C@H]2[C@@H]3[C@@H](O)C[C@@H]4C[C@H](O)CC[C@]4(C)[C@H]3CC[C@]12C | Non-Toxic | > 50 | Dose-Dependent Effect | –
8.58 | C[C@H](CCC(=O)N1CCN(C(=O)/C=C/c2cccc(OC(F)(F)F)c2)CC1)[C@H]1CC[C@H]2[C@@H]3[C@@H](O)C[C@@H]4C[C@H](O)CC[C@]4(C)[C@H]3CC[C@]12C | Non-Toxic | > 50 | Dose-Dependent Effect | –
– | C[C@H](CCC(=O)N1CCN(C(=O)/C=C/c2cc(F)c(F)c(F)c2)CC1)[C@H]1CC[C@H]2[C@@H]3[C@@H](O)C[C@@H]4C[C@H](O)CC[C@]4(C)[C@H]3CC[C@]12C | Toxic | – | – | –
– | CC(=O)O[C@@H]1CC[C@@]2(C)[C@@H](C1)C[C@H](OC(C)=O)[C@@H]1[C@@H]2CC[C@]2(C)[C@@H]([C@H](C)CCC(=O)N3CCN(C(=O)/C=C/c4ccc(C)cc4)CC3)CC[C@@H]12 | Non-Toxic | – | – | –
– | Cc1ccc(/C=C/C(=O)N2CCN(C(=O)CC[C@@H](C)[C@H]3CC[C@H]4[C@@H]5C(=O)C[C@@H]6CC(=O)CC[C@]6(C)[C@H]5CC[C@]34C)CC2)cc1 | Toxic | – | – | –
8.23 | C[C@H](CCC(=O)N1CCN(C(=O)/C=C/c2ccc(Cl)cc2)CC1)[C@H]1CC[C@H]2[C@@H]3[C@@H](O)C[C@@H]4C[C@H](O)CC[C@]4(C)[C@H]3CC[C@]12C | Non-Toxic | > 50 | Dose-Dependent Effect | –
– | C[C@H](CCC(=O)N1CCN(C(=O)/C=C/c2cccc(O)c2)CC1)[C@H]1CC[C@H]2[C@@H]3[C@@H](O)C[C@@H]4C[C@H](O)CC[C@]4(C)[C@H]3CC[C@]12C | Non-Toxic | – | – | –
9.49 | COc1cc(/C=C/C(=O)N2CCN(C(=O)CC[C@@H](C)[C@H]3CC[C@H]4[C@@H]5[C@@H](O)C[C@@H]6C[C@H](O)CC[C@]6(C)[C@H]5CC[C@]34C)CC2)cc(OC)c1OC | Non-Toxic | > 50 | Dose-Dependent Effect | –
– | C[C@H](CCC(=O)N1CCN(C(=O)/C=C/c2ccccc2Cl)CC1)[C@H]1CC[C@H]2[C@@H]3[C@@H](O)C[C@@H]4C[C@H](O)CC[C@]4(C)[C@H]3CC[C@]12C | Non-Toxic | – | – | –
– | C[C@H](CCC(=O)N1CCN(C(=O)/C=C/c2cccc3ccccc23)CC1)[C@H]1CC[C@H]2[C@@H]3[C@@H](O)C[C@@H]4C[C@H](O)CC[C@]4(C)[C@H]3CC[C@]12C | Non-Toxic | – | – | –
– | C[C@H](CCC(=O)N1CCN(C(=O)/C=C/c2cccc(Cl)c2)CC1)[C@H]1CC[C@H]2[C@@H]3[C@@H](O)C[C@@H]4C[C@H](O)CC[C@]4(C)[C@H]3CC[C@]12C | Non-Toxic | – | – | –
– | C[C@H](CCC(=O)N1CCN(C(=O)/C=C\c2ccc3c(c2)OCO3)CC1)[C@H]1CC[C@H]2[C@@H]3[C@@H](O)C[C@@H]4C[C@H](O)CC[C@]4(C)[C@H]3CC[C@]12C | Non-Toxic | – | – | –
